Converted amounts (≈) assume the structure as drawn. Read-outs that look alike come from different tables or passages of the source.
Tests used:
[1] = test system: Arabidopsis thaliana; assay: Arabidopsis growth inhibition assay (24-well plates, green channel pixel value); settings: Arabidopsis thaliana, 240 h; for EC50: read-out: EC50 against Arabidopsis growth; for pest or weed control at 100 µg/mL: read-out: InR (%) against Arabidopsis
[2] = test system: Brassica napus L.; assay: Pre-emergence herbicidal inhibition assay, Petri dish test, BN; type: in vivo; settings: for EC50: Brassica napus, 168 h; for Relative activity ratio (BN root) / Relative activity ratio (BN stalk): relative to FOS
Protocol: (§1) The pre-emergence activity of the compounds against monocot Echinochloa crus-galli (EC) and dicot Brassica napus L. (BN) was evaluated using the standard Petri dish test. The compounds were dissolved in DMF, emulsified with Tween-80 and diluted with water to form stock solutions, each of which was further diluted to a gradient of 100, 50, 25, 10 and 1 mg/L for test. The test solutions were added to Petri dishes lined with a filter paper, on which 10 seeds of EC and BN were placed. After cultured in an intelligent climate chamber with a humidity of 65% at 26 °C for 7 days, the corresponding EC50 values were calculated.

[3] = target: recombinant E. coli DXR (EcDXR) (Escherichia coli, UniProt P45568); assay: biochemical; settings: read-out: InR (%) on DXR enzyme
[4] = test system: Echinochloa crus-galli; assay: Pre-emergence herbicidal inhibition assay, Petri dish test, EC; type: in vivo; settings: for EC50: Echinochloa crus-galli, 168 h; for Relative activity ratio (EC root) / Relative activity ratio (EC stalk): relative to FOS
Protocol: as §1

[5] = root, 7 days, read-out: EC50 BN Root
[6] = stalk, 7 days, read-out: EC50 BN Stalk
[7] = root, 7 days, read-out: EC50 EC Root
[8] = stalk, 7 days, read-out: EC50 EC Stalk

Sequence of recombinant E. coli DXR (EcDXR) (P45568 whole entry): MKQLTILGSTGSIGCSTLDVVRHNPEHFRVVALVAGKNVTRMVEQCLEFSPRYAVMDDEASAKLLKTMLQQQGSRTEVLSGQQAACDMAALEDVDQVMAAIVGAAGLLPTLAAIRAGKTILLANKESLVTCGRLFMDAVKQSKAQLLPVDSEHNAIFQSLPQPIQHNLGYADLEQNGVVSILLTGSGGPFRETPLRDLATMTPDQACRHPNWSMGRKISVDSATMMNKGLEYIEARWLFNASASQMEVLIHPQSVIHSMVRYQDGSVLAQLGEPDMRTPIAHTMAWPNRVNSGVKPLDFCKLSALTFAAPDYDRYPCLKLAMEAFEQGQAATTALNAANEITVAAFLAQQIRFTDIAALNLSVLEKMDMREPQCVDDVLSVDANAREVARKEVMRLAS

| SMILES | EC50 [1] | pest or weed control at 100 µg/mL [1] | melting point | EC50 ([2]; read-out: EC50 BN Root) | EC50 ([2]; read-out: EC50 BN Stalk) | inhibition at 100 µM [3] | EC50 ([4]; read-out: EC50 EC Root) | EC50 ([4]; read-out: EC50 EC Stalk) | EC50 [2, 5] | EC50 [2, 6] | EC50 [4, 7] | EC50 [4, 8] | Relative activity ratio (BN root) [2] | Relative activity ratio (BN stalk) [2] | Relative activity ratio (EC root) [4] | Relative activity ratio (EC stalk) [4] |
| --- | --- | --- | --- | --- | --- | --- | --- | --- | --- | --- | --- | --- | --- | --- | --- | --- |
| Cc1n[nH]c(O)c1CCP(=O)(O)O [Compound 5a] | > 100 µg/mL | 24% | 220 to 221 °C | > 100 µg/mL | 32.8 µg/mL (≈ 159 µM) | 11.9% | 54.1 µg/mL (≈ 262 µM) | 68.5 µg/mL (≈ 332 µM) |  |  |  |  |  |  |  |  |
| CCc1n[nH]c(O)c1CCP(=O)(O)O [Compound 5b] | > 100 µg/mL | 26.5% | 217 to 218 °C | > 100 µg/mL | > 100 µg/mL | 12.9% | 86.7 µg/mL (≈ 394 µM) | 92.2 µg/mL (≈ 419 µM) |  |  |  |  |  |  |  |  |
| CCCc1n[nH]c(O)c1CCP(=O)(O)O [Compound 5c] | > 100 µg/mL | 43.6% | 228 to 229 °C |  |  | 6.1% |  |  | > 100 µg/mL | 48.2 µg/mL (≈ 206 µM) | 76.3 µg/mL (≈ 326 µM) | 10.6 µg/mL (≈ 45.3 µM) |  |  |  |  |
| CC(C)c1n[nH]c(O)c1CCP(=O)(O)O [Compound 5d] | > 100 µg/mL | 48.3% | 210 to 211 °C |  |  | 17.7% |  |  | > 100 µg/mL | 96.9 µg/mL (≈ 414 µM) | 32.1 µg/mL (≈ 137 µM) | > 100 µg/mL |  |  |  |  |
| Cc1n[nH]c(C)c1CCP(=O)(O)O [Compound 5e] | > 100 µg/mL | 15.8% | > 250 °C | 63 µg/mL (≈ 309 µM) | > 100 µg/mL | 23% | > 100 µg/mL | 59.6 µg/mL (≈ 292 µM) |  |  |  |  |  |  |  |  |
| CCc1n[nH]c(CC)c1CCP(=O)(O)O [Compound 5f] | > 100 µg/mL | 37.7% | > 250 °C |  |  | 32.4% |  |  | > 100 µg/mL | > 100 µg/mL | 71.6 µg/mL (≈ 308 µM) | 31.4 µg/mL (≈ 135 µM) |  |  |  |  |
| CCc1onc(O)c1CCP(=O)(O)O [Compound 6b] | > 100 µg/mL | 46.5% |  | 70.1 µg/mL (≈ 317 µM) | 65.8 µg/mL (≈ 298 µM) | 19.5% | 24.7 µg/mL (≈ 112 µM) | 36.1 µg/mL (≈ 163 µM) |  |  |  |  |  |  |  |  |
| CCCc1onc(O)c1CCP(=O)(O)O [Compound 6c] | > 100 µg/mL | 42% |  |  |  | 7.5% |  |  | 99.7 µg/mL (≈ 424 µM) | 33.7 µg/mL (≈ 143 µM) | 65.4 µg/mL (≈ 278 µM) | 41.1 µg/mL (≈ 175 µM) |  |  |  |  |
| CC(C)c1onc(O)c1CCP(=O)(O)O [Compound 6d] | 45.7 ± 4.8 µg/mL (≈ 194 µM) | 100% |  |  |  | 17.3% |  |  | 67.5 µg/mL (≈ 287 µM) | 38.2 µg/mL (≈ 162 µM) | 40.1 µg/mL (≈ 171 µM) | 25.7 µg/mL (≈ 109 µM) | 0.5 fold | 0.9 fold | 1.0 fold | 1.5 fold |
| Cc1noc(C)c1CCP(=O)(O)O [Compound 6e] | > 100 µg/mL | 12.3% | > 250 °C | > 100 µg/mL | 68.4 µg/mL (≈ 333 µM) | 12.1% | > 100 µg/mL | 54.1 µg/mL (≈ 264 µM) |  |  |  |  |  |  |  |  |
| CCc1noc(CC)c1CCP(=O)(O)O [Compound 6f] | > 100 µg/mL | 13.4% | > 250 °C |  |  | 11.7% |  |  | > 100 µg/mL | > 100 µg/mL | > 100 µg/mL | 41.7 µg/mL (≈ 179 µM) |  |  |  |  |
| Cc1n[nH]c(O)c1CC(P(=O)(O)O)P(=O)(O)O [Compound 12a] | > 100 µg/mL | 47.2% | > 250 °C |  |  | 13.7% |  |  | 51.3 µg/mL (≈ 179 µM) | 87.1 µg/mL (≈ 304 µM) | > 100 µg/mL | 47.7 µg/mL (≈ 167 µM) |  |  |  |  |
| CCc1n[nH]c(O)c1CC(P(=O)(O)O)P(=O)(O)O [Compound 12b] | > 100 µg/mL | 29.6% | > 250 °C |  |  | 21.9% |  |  | 61.6 µg/mL (≈ 205 µM) | 24.5 µg/mL (≈ 81.6 µM) | 77.5 µg/mL (≈ 258 µM) | 55.3 µg/mL (≈ 184 µM) |  |  |  |  |
| CCCc1n[nH]c(O)c1CC(P(=O)(O)O)P(=O)(O)O [Compound 12c] | > 100 µg/mL | 49.7% | > 250 °C |  |  | 32.3% |  |  | 55.1 µg/mL (≈ 175 µM) | 33.1 µg/mL (≈ 105 µM) | 68.3 µg/mL (≈ 217 µM) | 36.4 µg/mL (≈ 116 µM) |  |  |  |  |
| CC(C)c1n[nH]c(O)c1CC(P(=O)(O)O)P(=O)(O)O [Compound 12d] | > 100 µg/mL | 44.8% | > 250 °C |  |  | 12.4% |  |  | 21.2 µg/mL (≈ 67.5 µM) | 41.5 µg/mL (≈ 132 µM) | > 100 µg/mL | 39.1 µg/mL (≈ 124 µM) |  |  |  |  |
| O=P(O)(O)C(Cc1c(C(F)(F)F)n[nH]c1O)P(=O)(O)O [Compound 12e] | > 100 µg/mL | 31.5% | 225 to 226 °C |  |  | 22.8% |  |  | > 100 µg/mL | 45.7 µg/mL (≈ 134 µM) | 46.8 µg/mL (≈ 138 µM) | > 100 µg/mL |  |  |  |  |
| O=P(O)(O)C(Cc1c(C(F)F)n[nH]c1O)P(=O)(O)O [Compound 12f] | > 100 µg/mL | 47% | 228 to 229 °C |  |  | 6.1% |  |  | 15.6 µg/mL (≈ 48.4 µM) | 22.3 µg/mL (≈ 69.2 µM) | 36.5 µg/mL (≈ 113 µM) | 12.6 µg/mL (≈ 39.1 µM) |  |  |  |  |
| Cc1n[nH]c(C)c1CC(P(=O)(O)O)P(=O)(O)O [Compound 12g] | > 100 µg/mL | 40.4% | > 250 °C |  |  | 11.6% |  |  | > 100 µg/mL | 32.9 µg/mL (≈ 116 µM) | 38.8 µg/mL (≈ 137 µM) | 31.4 µg/mL (≈ 111 µM) |  |  |  |  |
| CCc1n[nH]c(CC)c1CC(P(=O)(O)O)P(=O)(O)O [Compound 12h] | > 100 µg/mL | 41.2% | > 250 °C |  |  | 2.3% |  |  | 40.1 µg/mL (≈ 128 µM) | 22.3 µg/mL (≈ 71.4 µM) | 44.2 µg/mL (≈ 142 µM) | 31.1 µg/mL (≈ 99.6 µM) |  |  |  |  |
| Cc1n[nH]c(C(F)(F)F)c1CC(P(=O)(O)O)P(=O)(O)O [Compound 12i] | 88.3 ± 4.3 µg/mL (≈ 261 µM) | 55.8% | > 250 °C |  |  | 27.1% |  |  | 36.6 µg/mL (≈ 108 µM) | 21.7 µg/mL (≈ 64.2 µM) | 53.1 µg/mL (≈ 157 µM) | 47.7 µg/mL (≈ 141 µM) | 0.9 fold | 1.5 fold | 0.8 fold | 0.8 fold |
| CCc1onc(O)c1CC(P(=O)(O)O)P(=O)(O)O [Compound 13b] | 37.7 ± 2.8 µg/mL (≈ 125 µM) | 100% |  |  |  | 27.4% |  |  | 38.8 µg/mL (≈ 129 µM) | 20.2 µg/mL (≈ 67.1 µM) | 29.9 µg/mL (≈ 99.3 µM) | 35.3 µg/mL (≈ 117 µM) | 0.9 fold | 1.6 fold | 1.3 fold | 1.1 fold |
| CCCc1onc(O)c1CC(P(=O)(O)O)P(=O)(O)O [Compound 13c] | 48.4 ± 5.3 µg/mL (≈ 154 µM) | 100% |  |  |  | 28.4% |  |  | 27.7 µg/mL (≈ 87.9 µM) | 46.9 µg/mL (≈ 149 µM) | 43.9 µg/mL (≈ 139 µM) | 45.8 µg/mL (≈ 145 µM) | 1.3 fold | 0.7 fold | 0.9 fold | 0.8 fold |
| Cc1noc(C)c1CC(P(=O)(O)O)P(=O)(O)O [Compound 13g] | > 100 µg/mL | 39.7% | > 250 °C |  |  | 7.3% |  |  | 60.4 µg/mL (≈ 212 µM) | 41.5 µg/mL (≈ 146 µM) | 79.8 µg/mL (≈ 280 µM) | 32.3 µg/mL (≈ 113 µM) |  |  |  |  |
| CCc1noc(CC)c1CC(P(=O)(O)O)P(=O)(O)O [Compound 13h] | > 100 µg/mL | 43.2% | > 250 °C |  |  | 10.3% |  |  | 39.2 µg/mL (≈ 125 µM) | 50.8 µg/mL (≈ 162 µM) | 48 µg/mL (≈ 153 µM) | 45.7 µg/mL (≈ 146 µM) |  |  |  |  |
| Cc1onc(C(F)(F)F)c1CC(P(=O)(O)O)P(=O)(O)O [Compound 13i] | 40.7 ± 2.9 µg/mL (≈ 120 µM) | 90.1% | 240 to 241 °C |  |  | 30.3% |  |  | 40.5 µg/mL (≈ 119 µM) | 33.5 µg/mL (≈ 98.8 µM) | 32.1 µg/mL (≈ 94.7 µM) | 34.6 µg/mL (≈ 102 µM) | 0.9 fold | 1.0 fold | 1.3 fold | 1.1 fold |
| CC1(C)CON(CCCP(=O)(O)O)C1=O [Compound 19] | > 100 µg/mL | 43.2% | > 250 °C |  |  | 22.5% |  |  | 79.3 µg/mL (≈ 334 µM) | 39.2 µg/mL (≈ 165 µM) | > 100 µg/mL | 88 µg/mL (≈ 371 µM) | 0.4 fold | 0.8 fold | 0.4 fold | 0.4 fold |
